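48-hour exposure; five concentrations; linearly interpolated endpoints. GI50: concentration for 50% inhibition of growth. TGI is the concentration that stops growth completely.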

Among the test systems are DU-145 prostate; MCF7 breast; SK-MEL-2 melanoma; NCI-H522 lung; SF-295 CNS; SF-268 CNS; NCI-H226 lung; A549 NSCLC; SR leukemia; NCI-H23 lung.
Holding throughout (assay): NCI anticancer screen, dose series, 48 h

With `CC1(C)N=C(N)N=C(N)N1c1cccc(CC(=O)Nc2ccccc2)c1`, the GI50 is 12.7 µM with DU-145 prostate; 7.56 µM in the assay with MCF7 breast; over 100 µM with SK-MEL-2 melanoma; 47.5 µM with NCI-H522 lung; 30.6 µM in the assay with SF-295 CNS; 1.35 µM in the assay with SF-268 CNS. The GI50 was over 100 µM in the assay on NCI-H226 lung, 3.54 µM in the assay with A549 NSCLC, 2.53 µM in the assay on SR leukemia and 14.8 µM with NCI-H23 lung. The TGI in the assay on DU-145 prostate, with MCF7 breast, in the assay on SK-MEL-2 melanoma, in the assay on NCI-H522 lung, in the assay with SF-295 CNS and in the assay with SF-268 CNS was over 100 µM throughout. Also, the TGI in the assay on NCI-H226 lung, in the assay on A549 NSCLC, in the assay with SR leukemia and in the assay on NCI-H23 lung was over 100 µM in each case.
In the case of `CC(C)c1c(C(=O)Nc2ccccc2)c(-c2ccccc2)c(-c2ccc(F)cc2)n1CC[C@@H](O)C[C@@H](O)CC(=O)O`, the GI50 was 52.5 µM in the assay with DU-145 prostate; 27.5 µM in the assay on MCF7 breast; 2.24 µM in the assay on SK-MEL-2 melanoma; 3.73 µM in the assay with NCI-H522 lung; 6.74 µM in the assay on SF-295 CNS; 6.64 µM with SF-268 CNS. The GI50 in the assay on NCI-H226 lung is 25.5 µM; in the assay on A549 NSCLC it was 56.5 µM; with SR leukemia it was 4.35 µM; with NCI-H23 lung, 31 µM. The TGI with DU-145 prostate is over 100 µM; in the assay on MCF7 breast, over 100 µM; in the assay with SK-MEL-2 melanoma, 7.49 µM; in the assay on NCI-H522 lung, over 47.3 µM; in the assay with SF-295 CNS, over 60.6 µM; in the assay on SF-268 CNS it was over 100 µM. Further, the TGI was over 100 µM in the assay on NCI-H226 lung, over 100 µM in the assay with A549 NSCLC, 39 µM in the assay with SR leukemia and over 100 µM in the assay on NCI-H23 lung.
With `O=c1c2cc(F)ccc2sc2c(NCCCNCCO)nc3ccc(F)cc3c12`, the GI50 with DU-145 prostate was 1.76 µM; with MCF7 breast it was 1.62 µM; in the assay with SK-MEL-2 melanoma, 2.04 µM; with NCI-H522 lung, 1.91 µM; with SF-295 CNS, 1.77 µM; in the assay on SF-268 CNS it was 1.57 µM. Also, the GI50 was 1.76 µM in the assay on NCI-H226 lung, 1.92 µM in the assay on A549 NSCLC, 3.41 µM with SR leukemia and 1.81 µM with NCI-H23 lung. Besides, the TGI with DU-145 prostate is 3.19 µM; with MCF7 breast, 3.2 µM; in the assay with SK-MEL-2 melanoma, 4.34 µM; with NCI-H522 lung, 4.03 µM; in the assay on SF-295 CNS, 3.23 µM; in the assay on SF-268 CNS it was 3.22 µM. Besides, the TGI was 3.52 µM in the assay with NCI-H226 lung, 4.4 µM with A549 NSCLC, over 100 µM in the assay with SR leukemia and 3.28 µM with NCI-H23 lung.
As to `Nc1ncnc2c1ncn2C1SC(CO)C(O)C1O` (stereo not given), the GI50 with DU-145 prostate was 6.93 µM; in the assay on MCF7 breast, 3.21 µM; with SK-MEL-2 melanoma, 78.8 µM; in the assay on NCI-H522 lung, 40 µM; in the assay with SF-295 CNS, 20.1 µM; with SF-268 CNS, 27.1 µM. In addition, the GI50 with NCI-H226 lung is 66.5 µM; with A549 NSCLC it was 26.6 µM; in the assay on SR leukemia it was 12.5 µM; in the assay with NCI-H23 lung it was 35.1 µM. The TGI in the assay on DU-145 prostate was 26.7 µM; in the assay on MCF7 breast it was 31.6 µM; in the assay on SK-MEL-2 melanoma, over 100 µM; in the assay with NCI-H522 lung it was over 100 µM; in the assay with SF-295 CNS, 52.6 µM; in the assay with SF-268 CNS it was 96.6 µM. The TGI in the assay with NCI-H226 lung was over 100 µM; in the assay on A549 NSCLC it was 73.4 µM; in the assay with SR leukemia, 45.2 µM; in the assay on NCI-H23 lung, over 100 µM.
Consider `C/C=C/C(C/C=C(\C)CO[Si](C)(C)C(C)(C)C)O[Si](C)(C)C(C)(C)C` (stereo not given), for which the TGI in the assay with DU-145 prostate, in the assay on MCF7 breast, with SK-MEL-2 melanoma, in the assay on NCI-H522 lung, with SF-295 CNS and in the assay with SF-268 CNS was over 100 µM throughout. The TGI with NCI-H226 lung, with A549 NSCLC, in the assay with SR leukemia and in the assay on NCI-H23 lung was over 100 µM in each case.
In the case of `c1c[nH]c(CN2CCN(Cc3ncc[nH]3)CC2)n1`, the TGI with DU-145 prostate, in the assay on MCF7 breast, in the assay on SK-MEL-2 melanoma, in the assay on NCI-H522 lung, in the assay with SF-295 CNS and in the assay on SF-268 CNS was over 100 µM in each case. Also, the TGI in the assay with NCI-H226 lung, with A549 NSCLC, in the assay with SR leukemia and with NCI-H23 lung was over 100 µM each time.
Regarding `COc1cc(-c2nn(-c3cccc(NC(=O)NCCNC(=O)c4ccccc4)c3)cc2-c2ccncc2)ccc1Cl`, the GI50 with DU-145 prostate was 4.72 µM; in the assay with MCF7 breast, 2.22 µM; in the assay with SK-MEL-2 melanoma, 2.34 µM; in the assay with NCI-H522 lung, 1.79 µM; in the assay on SF-295 CNS, 1.63 µM; in the assay on SF-268 CNS it was 4.27 µM. Besides, the GI50 is 2.73 µM in the assay with NCI-H226 lung, 4.57 µM in the assay with A549 NSCLC, 2.42 µM in the assay with SR leukemia and 3.37 µM with NCI-H23 lung. The TGI was over 100 µM in the assay with DU-145 prostate; over 100 µM in the assay with MCF7 breast; 5.43 µM in the assay with SK-MEL-2 melanoma; 7.37 µM in the assay on NCI-H522 lung; 4.57 µM in the assay with SF-295 CNS; over 100 µM with SF-268 CNS. The TGI with NCI-H226 lung was 83.4 µM; in the assay with A549 NSCLC it was over 100 µM; with SR leukemia, over 100 µM; in the assay with NCI-H23 lung, over 100 µM.
As for `CC1(C)CCC(c2ccc(Cl)cc2)=C(CN2CCN(c3ccc(C(=O)NS(=O)(=O)c4ccc(N[C@H](CCN5CCOCC5)CSc5ccccc5)c(S(=O)(=O)C(F)(F)F)c4)cc3)CC2)C1`, the GI50 in the assay on DU-145 prostate was 2.76 µM; in the assay with MCF7 breast it was 2.11 µM; in the assay on SK-MEL-2 melanoma, 1.86 µM; in the assay on NCI-H522 lung, 1.89 µM; in the assay on SF-295 CNS it was 1.52 µM; in the assay with SF-268 CNS, 2.31 µM. For the same compound, the GI50 in the assay with NCI-H226 lung was 1.62 µM; with A549 NSCLC, 1.73 µM; in the assay on SR leukemia it was 2.34 µM; in the assay with NCI-H23 lung, 1.74 µM. Further, the TGI was found to be 7.12 µM with DU-145 prostate; 5.51 µM in the assay on MCF7 breast; 4.35 µM with SK-MEL-2 melanoma; 5.03 µM in the assay with NCI-H522 lung; 3.2 µM with SF-295 CNS; 5.55 µM in the assay on SF-268 CNS. Also, the TGI in the assay on NCI-H226 lung was 3.13 µM; in the assay on A549 NSCLC it was 3.58 µM; in the assay on SR leukemia, over 25.9 µM; with NCI-H23 lung, 3.96 µM.

For the origin of these results see PubChem BioAssay (NCI).
